Measurements reported in PubChem BioAssay AID1963968 (Molecular Pharmacology Branch, DTP, NCI, 2024).

Test system: 945468-187-T-J3-PDC spheroids with HUVEC/MSC, viability
Assay: Anticancer human tumor 945468-187-T-J3-PDC patient-derived rectal carcinoma cell line growth inhibition [PI3K]
Conditions: for IC50: curve of first compound; for viability, T/C: stronger effect = lower value; active means viability on the fitted dose curve at most 10% of control; inactive means the rest
Procedure, shortened: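 Stroma-containing spheroids: tumor line, pooled-donor HUVEC, hMSC. Treatments: targeted agents with PI3K inhibitors. Dosing: clinically relevant, half-log spacing, 10 microM ceiling without known Cmax. Read-out: cell viability.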

[1] = second compound 0.0316 µM, first compound 0.0316 µM
[2] = second compound 0.0316 µM, first compound 0.1 µM
[3] = second compound 0.0316 µM, first compound 0.316 µM
[4] = second compound 0.0316 µM, first compound 1 µM
[5] = second compound 0.0316 µM, first compound 3.16 µM
[6] = second compound 0.0316 µM, first compound 10 µM
[7] = second compound 0.1 µM, first compound 0.0316 µM
[8] = second compound 0.1 µM, first compound 0.1 µM
[9] = second compound 0.1 µM, first compound 0.316 µM
[10] = second compound 0.1 µM, first compound 1 µM
[11] = second compound 0.1 µM, first compound 3.16 µM
[12] = second compound 0.1 µM, first compound 10 µM
[13] = second compound 0.316 µM, first compound 0.0316 µM
[14] = second compound 0.316 µM, first compound 0.1 µM
[15] = second compound 0.316 µM, first compound 0.316 µM
[16] = second compound 0.316 µM, first compound 1 µM
[17] = second compound 0.316 µM, first compound 3.16 µM
[18] = second compound 0.316 µM, first compound 10 µM
[19] = second compound 1 µM, first compound 0.0316 µM
[20] = second compound 1 µM, first compound 0.1 µM
[21] = second compound 1 µM, first compound 0.316 µM
[22] = second compound 1 µM, first compound 1 µM
[23] = second compound 1 µM, first compound 3.16 µM
[24] = second compound 1 µM, first compound 10 µM
[25] = second compound 3.16 µM, first compound 0.0316 µM
[26] = second compound 3.16 µM, first compound 0.1 µM
[27] = second compound 3.16 µM, first compound 0.316 µM
[28] = second compound 3.16 µM, first compound 1 µM
[29] = second compound 3.16 µM, first compound 3.16 µM
[30] = second compound 3.16 µM, first compound 10 µM
[31] = second compound 10 µM, first compound 0.0316 µM
[32] = second compound 10 µM, first compound 0.1 µM
[33] = second compound 10 µM, first compound 0.316 µM
[34] = second compound 10 µM, first compound 1 µM
[35] = second compound 10 µM, first compound 3.16 µM
[36] = second compound 10 µM, first compound 10 µM
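Further: spheroids exposed to agents for 7 days before viability read.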
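Wherever viability, T/C is given: 100% = DMSO vehicle control viability.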

C#Cc1c(F)ccc2cc(O)cc(-c3ncc4c(N5CC6CCC(C5)N6)nc(OCC56CCCN5CC(F)C6)nc4c3F)c12 (stereo unspecified) + Cc1nc(NC(=O)N2CCCC2C(N)=O)sc1-c1ccnc(C(C)(C)C(F)(F)F)c1
inactive: viability, T/C [1] 96.8% | viability, T/C [2] 101% | viability, T/C [3] 95.4% | viability, T/C [4] 107% | viability, T/C [5] 127% | viability, T/C [6] 119% | viability, T/C [7] 105% | viability, T/C [8] 115% | viability, T/C [9] 101% | viability, T/C [10] 113% | viability, T/C [11] 132% | viability, T/C [12] 115% | viability, T/C [13] 109% | viability, T/C [14] 105% | viability, T/C [15] 97.6% | viability, T/C [16] 113% | viability, T/C [17] 134% | viability, T/C [18] 118% | viability, T/C [19] 114% | viability, T/C [20] 110% | viability, T/C [21] 109% | viability, T/C [22] 112% | viability, T/C [23] 127% | viability, T/C [24] 106% | viability, T/C [25] 107% | viability, T/C [26] 110% | viability, T/C [27] 111% | viability, T/C [28] 103% | viability, T/C [29] 80.9% | viability, T/C [30] 38% | viability, T/C [31] 70.4% | viability, T/C [32] 59.9% | viability, T/C [33] 50% | viability, T/C [34] 47.8% | viability, T/C [35] 26.9%
> 10 µM: IC50 (second compound 0.0316 µM) | IC50 (second compound 0.1 µM) | IC50 (second compound 0.316 µM) | IC50 (second compound 1 µM)
0.464 µM: IC50 (second compound 10 µM)
7.25 µM: IC50 (second compound 3.16 µM)
active: viability, T/C [36] 9.1%

CC(Cn1ccc(-c2ccc(C#N)c(Cl)c2)n1)NC(=O)c1cc(C(C)O)[nH]n1 (stereo unspecified) + Cc1nc(NC(=O)N2CCCC2C(N)=O)sc1-c1ccnc(C(C)(C)C(F)(F)F)c1
> 10 µM: IC50 (second compound 0.0316 µM) | IC50 (second compound 0.1 µM) | IC50 (second compound 0.316 µM) | IC50 (second compound 1 µM) | IC50 (second compound 3.16 µM) | IC50 (second compound 10 µM)
inactive: viability, T/C [1] 99.7% | viability, T/C [2] 104% | viability, T/C [3] 90.9% | viability, T/C [4] 93.4% | viability, T/C [5] 102% | viability, T/C [6] 92.7% | viability, T/C [7] 106% | viability, T/C [8] 101% | viability, T/C [9] 91.9% | viability, T/C [10] 109% | viability, T/C [11] 106% | viability, T/C [12] 96.9% | viability, T/C [13] 95.6% | viability, T/C [14] 102% | viability, T/C [15] 93.8% | viability, T/C [16] 108% | viability, T/C [17] 98.8% | viability, T/C [18] 88.1% | viability, T/C [19] 112% | viability, T/C [20] 109% | viability, T/C [21] 98.1% | viability, T/C [22] 112% | viability, T/C [23] 100% | viability, T/C [24] 98.8% | viability, T/C [25] 104% | viability, T/C [26] 102% | viability, T/C [27] 92.5% | viability, T/C [28] 91.7% | viability, T/C [29] 101% | viability, T/C [30] 104% | viability, T/C [31] 65.3% | viability, T/C [32] 58.1% | viability, T/C [33] 53.7% | viability, T/C [34] 60.2% | viability, T/C [35] 54.4% | viability, T/C [36] 63%

CC1(C)CCC(Nc2ncc(C(F)(F)F)c(-c3c[nH]c4c(P(C)(C)=O)c(C#N)ccc34)n2)CN1 (stereo unspecified) + Cc1nc(NC(=O)N2CCCC2C(N)=O)sc1-c1ccnc(C(C)(C)C(F)(F)F)c1
1.9 µM: IC50 (second compound 3.16 µM)
4.44 µM: IC50 (second compound 1 µM)
5.65 µM: IC50 (second compound 0.0316 µM)
active: viability, T/C [24] 7.36% | viability, T/C [30] 5.2% | viability, T/C [36] 2.06%
0.841 µM: IC50 (second compound 10 µM)
5.41 µM: IC50 (second compound 0.1 µM)
5.06 µM: IC50 (second compound 0.316 µM)
inactive: viability, T/C [1] 81.7% | viability, T/C [2] 84.6% | viability, T/C [3] 72.8% | viability, T/C [4] 85.5% | viability, T/C [5] 101% | viability, T/C [6] 15.4% | viability, T/C [7] 91.4% | viability, T/C [8] 75.8% | viability, T/C [9] 79% | viability, T/C [10] 79.9% | viability, T/C [11] 84.4% | viability, T/C [12] 13.2% | viability, T/C [13] 82.5% | viability, T/C [14] 75.5% | viability, T/C [15] 65.4% | viability, T/C [16] 75.9% | viability, T/C [17] 85% | viability, T/C [18] 11.2% | viability, T/C [19] 107% | viability, T/C [20] 76.7% | viability, T/C [21] 72.2% | viability, T/C [22] 86.7% | viability, T/C [23] 68% | viability, T/C [25] 78.5% | viability, T/C [26] 72.2% | viability, T/C [27] 75.5% | viability, T/C [28] 54.8% | viability, T/C [29] 44.5% | viability, T/C [31] 65.1% | viability, T/C [32] 60% | viability, T/C [33] 50.6% | viability, T/C [34] 44.5% | viability, T/C [35] 40.2%
